Patent US4605660A, “Indeno[2,1-c]pyridine compounds, and their use as calcium channel blockers” (Merck & Co., Inc., priority 1985, dated 1986)

System: Rat Aorta
Assay: Inhibition of calcium chloride-induced contraction of depolarized rat aorta (vascular smooth muscle segments in tissue bath)
Type: cell-based, male Sprague-Dawley rats
Settings: contraction induced by 1.0 mM calcium chloride; for inhibition at 1 µM / inhibition at 10 µM: Rattus norvegicus, read-out: Percent Inhibition of Contraction of Rat Aorta; for inhibition at 10 µM: at 10^-5 M
Protocol: The property may be observed in a test in which segments of vascular smooth muscle obtained from male Sprague-Dawley rats are suspended in physiological salt solution in a tissue bath instrumented for recording contractions. After the tissue has been equilibrated, washed in calcium-free physiological salt solution and then depolarized, 1.0 mM calcium chloride is re-added to induce contraction. […] From measuring the initial contraction as well as the second contraction in the presence of the test compound, the extent of inhibition may be calculated.

SMILES	inhibition at 1 µM (at 10^-6 M) [%]	inhibition at 10 µM [%]	other results
COC(=O)C1=C(C)N[C@](C)(C#N)[C@]2(C(=O)OC)[C@@H](O)c3cc(OC)ccc3[C@H]12 (relative stereo) [Compound IIIB-2, 4a(R,S),9a(S,R)-Dimethyl 1-cyano-9-hydroxy-7-methoxy-2,4a,9,9a-tetrahydro-1,3-dimethyl-9H-indeno[2,1-c]pyridine-4,9a-dicarboxylate]	2	–	–
CCOC(=O)C1=C(C)NC(C)(C#N)[C@]2(C(=O)OCC)C(O)c3ccccc3[C@H]12 (stereo partly drawn) [Compound IIIB-1, 4a(R,S),9a(S,R)-Diethyl 1-cyano-1,3-dimethyl-2,4a,9,9a-tetrahydro-9-hydroxy-9H-indeno[2,1-c]pyridine-4,9a-dicarboxylate]	–	–	Percent Inhibition of Contraction of Rat Aorta (at 10^-6 M): 52%
CCOC(=O)C1=C(C)N[C@@](C)(C#N)[C@]2(C(=O)OCC)[C@@H](OC(C)=O)c3ccccc3[C@H]12 (relative stereo) [Compound IVA-1, 4a(R,S),9a(S,R)-Diethyl 9-acetoxy-1-cyano-2,4a,9,9a-tetrahydro-1,3-dimethyl-9H-indeno[2,1-c]pyridine-4,9a-dicarboxylate]	–	62	–
CCOC(=O)C1=C(C)N[C@](C)(C#N)[C@]2(C(=O)OCC)[C@@H](OC(C)=O)c3ccccc3[C@H]12 (relative stereo) [Compound IVB-1, 4a(R,S),9a(S,R)-Diethyl 9-acetoxy-1-cyano-2,4a,9,9a-tetrahydro-1,3-dimethyl-9H-indeno[2,1-c]pyridine-4,9a-dicarboxylate]	6	–	–
CCOC(=O)C1=C(C)N[C@@](C)(C#N)[C@]2(C(=O)OCC)[C@@H](O)c3ccccc3[C@H]12 (relative stereo) [Compound IIIA-1, 4a(R,S),9a(S,R)-Diethyl 1-cyano-1,3-dimethyl-2,4a,9,9a-tetrahydro-9-hydroxy-9H-indeno[2,1-c]pyridine-4,9a-dicarboxylate]	–	84	–
COC(=O)C1=C(C)N[C@@](C)(C#N)[C@]2(C(=O)OC)[C@@H](O)c3cc(OC)ccc3[C@H]12 (relative stereo) [Compound IIIA-2, 4a(R,S),9a(S,R)-Dimethyl 1-cyano-9-hydroxy-7-methoxy-2,4a,9,9a-tetrahydro-1,3-dimethyl-9H-indeno[2,1-c]pyridine-4,9a-dicarboxylate hydrate]	4	–	–
CCOC(=O)C1=C(C)N[C@@](C)(C#N)[C@]2(C(=O)OCC)[C@H](Cl)c3ccccc3[C@H]12 (relative stereo) [Compound V-1, 4a(R,S),9a(S,R)-Diethyl 9-chloro-1-cyano-2,4a,9,9a-tetrahydro-1,3-dimethyl-9H-indeno[2,1-c]pyridine-4,9a-dicarboxylate]	–	24	–
